{"source": "ChEMBL document CHEMBL1201862", "about": "“PubChem BioAssay data set” (2004)", "key": {"[1]": {"experiment": "cytotoxicity in HMLE control line with eGFP shRNA, dose response, counter-screen for HMLE_sh_ECad selective toxicity project, cell-based, HMLE_sh_eGFP, luminescence (AID 463074);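 further: HMLE human mammary epithelial cells expressing control shRNA against eGFP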", "format": "functional, Homo sapiens"}, "[2]": {"experiment": "Luminescence Cell-Based Dose Retest to Confirm Inhibitors of Cancer Stem Cells. [Related pubchem assays (depositor defined):AID2717, AID2721]", "format": "functional", "details": "Homo sapiens"}, "[3]": {"biological_target": "T1, High affinity choline transporter 1 (Homo sapiens, UniProt Q9GZV3)", "T1 sequence (Q9GZV3 whole entry)": "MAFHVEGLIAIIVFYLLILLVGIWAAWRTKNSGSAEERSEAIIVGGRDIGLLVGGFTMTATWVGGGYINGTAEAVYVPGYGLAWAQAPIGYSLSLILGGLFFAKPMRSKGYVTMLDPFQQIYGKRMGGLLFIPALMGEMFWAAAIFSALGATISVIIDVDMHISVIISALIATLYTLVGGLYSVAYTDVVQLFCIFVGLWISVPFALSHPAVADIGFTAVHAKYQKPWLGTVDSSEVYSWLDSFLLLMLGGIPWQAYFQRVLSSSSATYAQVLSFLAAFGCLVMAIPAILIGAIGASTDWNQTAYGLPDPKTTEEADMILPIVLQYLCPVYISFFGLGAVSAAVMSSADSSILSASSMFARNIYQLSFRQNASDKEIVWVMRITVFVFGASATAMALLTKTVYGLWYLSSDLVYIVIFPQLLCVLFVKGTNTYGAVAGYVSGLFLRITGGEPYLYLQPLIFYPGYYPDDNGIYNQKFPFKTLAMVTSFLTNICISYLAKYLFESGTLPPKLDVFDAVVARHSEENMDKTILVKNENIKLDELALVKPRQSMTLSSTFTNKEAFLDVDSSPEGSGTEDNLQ", "experiment": "CHT inhibitors, dose response, cell-based, 5-point CRC, membrane potential dye (AID 504840)", "format": "functional"}, "[4]": {"biological_target": "Peroxisome proliferator-activated receptor gamma/Nuclear receptor coactivator 3 (Homo sapiens, UniProt P37231)", "sequence (P37231 whole entry)": "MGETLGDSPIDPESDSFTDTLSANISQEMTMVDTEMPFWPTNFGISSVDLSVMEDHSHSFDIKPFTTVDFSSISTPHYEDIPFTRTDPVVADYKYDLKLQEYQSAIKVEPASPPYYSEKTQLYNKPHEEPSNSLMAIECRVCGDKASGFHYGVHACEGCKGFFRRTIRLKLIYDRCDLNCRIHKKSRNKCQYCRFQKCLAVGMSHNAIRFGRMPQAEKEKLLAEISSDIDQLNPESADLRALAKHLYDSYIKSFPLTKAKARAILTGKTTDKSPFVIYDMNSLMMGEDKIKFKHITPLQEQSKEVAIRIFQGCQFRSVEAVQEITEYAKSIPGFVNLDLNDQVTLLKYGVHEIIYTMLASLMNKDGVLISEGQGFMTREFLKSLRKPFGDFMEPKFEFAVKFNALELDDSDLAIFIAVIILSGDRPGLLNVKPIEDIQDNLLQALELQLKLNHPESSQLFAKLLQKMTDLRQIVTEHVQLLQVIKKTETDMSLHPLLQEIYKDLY", "sequence (Q9Y6Q9 whole entry, further chain)": "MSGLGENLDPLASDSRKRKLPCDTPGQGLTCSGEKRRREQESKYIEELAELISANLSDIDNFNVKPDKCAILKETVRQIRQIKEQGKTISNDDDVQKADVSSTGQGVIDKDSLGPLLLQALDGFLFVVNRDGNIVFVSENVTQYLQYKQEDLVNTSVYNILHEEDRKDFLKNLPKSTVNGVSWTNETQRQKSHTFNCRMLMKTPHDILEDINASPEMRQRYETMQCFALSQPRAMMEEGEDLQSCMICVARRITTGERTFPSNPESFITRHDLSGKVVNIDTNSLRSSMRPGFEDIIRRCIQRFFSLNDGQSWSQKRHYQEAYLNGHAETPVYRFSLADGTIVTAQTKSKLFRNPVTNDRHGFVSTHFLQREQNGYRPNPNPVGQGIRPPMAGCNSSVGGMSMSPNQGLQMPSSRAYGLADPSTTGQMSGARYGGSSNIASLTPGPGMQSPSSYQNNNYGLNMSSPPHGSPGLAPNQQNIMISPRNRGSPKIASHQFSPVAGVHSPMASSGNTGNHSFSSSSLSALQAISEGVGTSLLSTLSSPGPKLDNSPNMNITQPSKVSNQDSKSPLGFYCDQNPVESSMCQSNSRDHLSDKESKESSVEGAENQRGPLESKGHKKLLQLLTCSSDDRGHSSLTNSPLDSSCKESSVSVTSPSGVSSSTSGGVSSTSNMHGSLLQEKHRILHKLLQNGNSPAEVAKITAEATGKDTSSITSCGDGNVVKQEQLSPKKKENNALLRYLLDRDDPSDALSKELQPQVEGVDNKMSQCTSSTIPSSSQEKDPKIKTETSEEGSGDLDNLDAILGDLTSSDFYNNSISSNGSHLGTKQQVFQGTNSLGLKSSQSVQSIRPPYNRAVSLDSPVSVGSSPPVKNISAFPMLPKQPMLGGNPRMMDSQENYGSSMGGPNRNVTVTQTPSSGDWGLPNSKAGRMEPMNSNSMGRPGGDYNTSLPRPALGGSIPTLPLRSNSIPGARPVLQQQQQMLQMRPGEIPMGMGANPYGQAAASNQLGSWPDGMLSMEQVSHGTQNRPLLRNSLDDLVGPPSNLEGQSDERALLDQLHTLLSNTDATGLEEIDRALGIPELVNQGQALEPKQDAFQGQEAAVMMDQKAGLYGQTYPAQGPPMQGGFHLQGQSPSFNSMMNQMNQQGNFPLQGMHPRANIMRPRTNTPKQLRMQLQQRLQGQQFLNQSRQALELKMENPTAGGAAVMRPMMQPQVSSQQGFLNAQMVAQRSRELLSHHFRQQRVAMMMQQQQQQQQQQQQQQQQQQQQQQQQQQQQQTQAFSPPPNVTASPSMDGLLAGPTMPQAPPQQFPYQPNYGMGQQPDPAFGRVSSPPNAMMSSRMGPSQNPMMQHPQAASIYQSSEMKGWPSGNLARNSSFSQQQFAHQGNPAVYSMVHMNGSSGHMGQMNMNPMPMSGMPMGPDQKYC", "experiment": "TR-FRET dose response biochemical High Throughput Screening assay for agonists of the steroid receptor coactivator 3 (SRC-3) recruitment by the peroxisome proliferator-activated receptor gamma (PPAR gamma): non-selective agonists. [Related pubchem assays: 1301 (Confirmation screen.), 1048 (Primary screen.)]", "format": "functional"}, "[5]": {"biological_target": "Peroxisome proliferator-activated receptor gamma/Nuclear receptor coactivator 2 (Homo sapiens, UniProt P37231)", "experiment": "(§1) TR-FRET dose response biochemical High Throughput Screening assay for agonists of the steroid receptor coactivator 2 (SRC-2) recruitment by the peroxisome proliferator-activated receptor gamma (PPAR gamma): non-selective agonists. [Related pubchem assays: 1297, 1032 ]", "format": "functional"}, "[6]": {"biological_target": "Peroxisome proliferator-activated receptor gamma/Nuclear receptor coactivator 1 (Homo sapiens, UniProt P37231)", "experiment": "as §1, with “1 (SRC-1)” for “2 (SRC-2)”, “assays (depositor defined):AID1300, AID1808, AID504735, AID631]” for “assays: 1297, 1032 ]”", "format": "protein assay"}, "[7]": {"biological_target": "Dual specificity tyrosine-phosphorylation-regulated kinase 1A (Rattus norvegicus, UniProt Q63470)", "format": "biochemical, Homo sapiens"}, "[8]": {"biological_target": "T2, Rac GTPase-activating protein 1 (Homo sapiens, UniProt Q9H0H5)", "T2 sequence (Q9H0H5 whole entry)": "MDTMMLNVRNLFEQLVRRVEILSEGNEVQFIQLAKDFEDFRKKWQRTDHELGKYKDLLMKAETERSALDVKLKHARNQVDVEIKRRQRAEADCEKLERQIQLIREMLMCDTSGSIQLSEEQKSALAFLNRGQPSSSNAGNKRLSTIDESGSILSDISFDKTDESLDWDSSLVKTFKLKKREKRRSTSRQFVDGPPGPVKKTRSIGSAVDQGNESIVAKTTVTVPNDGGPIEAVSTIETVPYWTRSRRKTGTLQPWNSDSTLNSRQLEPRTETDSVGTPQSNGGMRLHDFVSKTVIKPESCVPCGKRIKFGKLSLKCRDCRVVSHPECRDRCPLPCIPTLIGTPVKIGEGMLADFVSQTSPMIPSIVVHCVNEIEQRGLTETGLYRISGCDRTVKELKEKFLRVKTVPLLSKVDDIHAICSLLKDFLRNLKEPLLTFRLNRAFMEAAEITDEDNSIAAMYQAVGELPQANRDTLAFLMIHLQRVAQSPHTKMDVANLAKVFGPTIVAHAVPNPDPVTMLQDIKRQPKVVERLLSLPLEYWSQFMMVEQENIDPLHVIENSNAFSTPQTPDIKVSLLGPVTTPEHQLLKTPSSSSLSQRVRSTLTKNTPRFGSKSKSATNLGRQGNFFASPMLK", "experiment": "MgcRacGAP GTPase-activating activity inhibitors, confirmation, biochemical, ADP Hunter fluorescence, primary and confirmatory (AID 624330)", "format": "functional"}, "[9]": {"biological_target": "T3, Alkaline phosphatase, tissue-nonspecific isozyme (Homo sapiens, UniProt P05186)", "T3 sequence (P05186 whole entry)": "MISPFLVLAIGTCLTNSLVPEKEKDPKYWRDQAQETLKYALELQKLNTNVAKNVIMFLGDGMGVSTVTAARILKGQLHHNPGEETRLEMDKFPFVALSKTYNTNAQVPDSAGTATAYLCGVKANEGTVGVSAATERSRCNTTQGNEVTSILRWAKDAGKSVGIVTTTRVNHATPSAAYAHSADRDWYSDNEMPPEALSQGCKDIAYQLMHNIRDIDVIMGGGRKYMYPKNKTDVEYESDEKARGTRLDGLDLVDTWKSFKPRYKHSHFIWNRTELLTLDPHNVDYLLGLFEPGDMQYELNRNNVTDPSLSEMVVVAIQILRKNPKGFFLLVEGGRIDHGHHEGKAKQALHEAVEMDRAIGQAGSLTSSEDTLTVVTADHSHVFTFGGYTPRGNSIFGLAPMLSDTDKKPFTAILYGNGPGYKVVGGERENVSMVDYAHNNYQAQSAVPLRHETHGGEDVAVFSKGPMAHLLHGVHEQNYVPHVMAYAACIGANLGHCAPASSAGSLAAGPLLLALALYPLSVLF", "experiment": "TNAP enzyme activators, dose response, selectivity assay for human IAP activator project, biochemical, TNAP isozyme, human IAP uHTS hits (AID 488886)", "format": "functional"}, "[10]": {"biological_target": "Intestinal-type alkaline phosphatase (Mus musculus, UniProt P24822)", "sequence (P24822 whole entry)": "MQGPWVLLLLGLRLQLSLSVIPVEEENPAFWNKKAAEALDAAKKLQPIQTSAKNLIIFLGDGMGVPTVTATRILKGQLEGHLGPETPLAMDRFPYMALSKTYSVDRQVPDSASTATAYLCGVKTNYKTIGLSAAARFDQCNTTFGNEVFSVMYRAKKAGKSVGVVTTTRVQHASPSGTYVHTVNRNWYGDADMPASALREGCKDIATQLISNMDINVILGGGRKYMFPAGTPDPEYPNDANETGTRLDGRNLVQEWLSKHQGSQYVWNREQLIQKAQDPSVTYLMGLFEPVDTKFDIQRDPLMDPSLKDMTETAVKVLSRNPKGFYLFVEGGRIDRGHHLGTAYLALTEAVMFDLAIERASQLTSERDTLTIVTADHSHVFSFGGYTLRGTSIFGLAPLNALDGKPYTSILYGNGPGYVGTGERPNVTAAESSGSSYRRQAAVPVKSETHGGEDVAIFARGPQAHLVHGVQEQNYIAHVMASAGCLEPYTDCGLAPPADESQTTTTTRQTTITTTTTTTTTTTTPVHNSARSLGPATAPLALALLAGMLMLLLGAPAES", "experiment": "PubChem AID 488874", "format": "functional"}, "[11]": {"biological_target": "T4, Intestinal-type alkaline phosphatase (Homo sapiens, UniProt P09923)", "T4 sequence (P09923 whole entry)": "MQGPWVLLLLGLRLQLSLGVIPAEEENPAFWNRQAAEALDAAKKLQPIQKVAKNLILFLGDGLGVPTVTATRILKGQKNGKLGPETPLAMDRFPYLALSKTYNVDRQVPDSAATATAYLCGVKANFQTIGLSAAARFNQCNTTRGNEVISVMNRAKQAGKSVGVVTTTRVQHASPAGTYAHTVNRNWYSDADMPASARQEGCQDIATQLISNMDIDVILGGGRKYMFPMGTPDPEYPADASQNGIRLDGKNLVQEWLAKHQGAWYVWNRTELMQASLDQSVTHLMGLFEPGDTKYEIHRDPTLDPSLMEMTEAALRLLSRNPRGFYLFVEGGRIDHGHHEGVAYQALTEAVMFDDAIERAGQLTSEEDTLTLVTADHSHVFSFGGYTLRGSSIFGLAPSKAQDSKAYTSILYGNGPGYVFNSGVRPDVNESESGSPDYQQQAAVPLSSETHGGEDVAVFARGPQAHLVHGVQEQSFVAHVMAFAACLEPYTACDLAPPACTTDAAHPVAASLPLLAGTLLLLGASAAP", "experiment": "human intestinal alkaline phosphatase activators, dose response, biochemical, luminescence, uHTS hits (AID 463120)", "format": "functional"}, "[12]": {"biological_target": "T4, Intestinal-type alkaline phosphatase", "experiment": "human IAP activators, dose response, biochemical, luminescent, uHTS hits, set 2 (AID 488817)", "format": "functional"}, "[13]": {"biological_target": "Voltage-gated inwardly rectifying potassium channel KCNH2 (Homo sapiens, UniProt Q12809)", "sequence (Q12809 whole entry)": "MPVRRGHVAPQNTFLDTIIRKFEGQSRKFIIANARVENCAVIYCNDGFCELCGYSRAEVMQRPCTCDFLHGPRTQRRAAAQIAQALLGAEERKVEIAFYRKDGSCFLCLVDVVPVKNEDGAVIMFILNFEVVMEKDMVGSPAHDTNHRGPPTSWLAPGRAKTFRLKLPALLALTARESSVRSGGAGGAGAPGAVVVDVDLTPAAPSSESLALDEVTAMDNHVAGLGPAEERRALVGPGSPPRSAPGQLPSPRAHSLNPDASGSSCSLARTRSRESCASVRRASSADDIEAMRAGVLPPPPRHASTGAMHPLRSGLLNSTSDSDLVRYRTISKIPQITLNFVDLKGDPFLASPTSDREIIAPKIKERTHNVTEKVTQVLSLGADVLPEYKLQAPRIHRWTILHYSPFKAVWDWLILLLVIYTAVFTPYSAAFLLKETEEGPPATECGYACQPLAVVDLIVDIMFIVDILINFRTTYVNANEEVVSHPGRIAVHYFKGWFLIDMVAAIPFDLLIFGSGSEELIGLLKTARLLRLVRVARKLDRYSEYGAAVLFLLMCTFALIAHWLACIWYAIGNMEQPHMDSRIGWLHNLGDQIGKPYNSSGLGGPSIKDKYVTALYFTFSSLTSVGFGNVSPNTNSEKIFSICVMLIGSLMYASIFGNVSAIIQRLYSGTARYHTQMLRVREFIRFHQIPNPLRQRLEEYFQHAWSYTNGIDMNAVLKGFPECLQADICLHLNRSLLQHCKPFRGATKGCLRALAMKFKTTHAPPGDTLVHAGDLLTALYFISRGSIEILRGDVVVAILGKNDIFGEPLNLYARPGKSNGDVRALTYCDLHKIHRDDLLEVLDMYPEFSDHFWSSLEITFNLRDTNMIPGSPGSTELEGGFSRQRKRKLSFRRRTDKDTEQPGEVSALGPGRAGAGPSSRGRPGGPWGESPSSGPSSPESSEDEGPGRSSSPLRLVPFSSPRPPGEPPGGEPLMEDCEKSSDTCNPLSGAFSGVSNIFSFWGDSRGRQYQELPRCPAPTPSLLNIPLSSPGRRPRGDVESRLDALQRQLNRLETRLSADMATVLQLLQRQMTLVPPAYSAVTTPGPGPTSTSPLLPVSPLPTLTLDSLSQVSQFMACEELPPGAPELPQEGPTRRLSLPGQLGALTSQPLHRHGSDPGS", "details": "Potency"}}, "note": "Activity calls are given as the source filed them.", "data": [{"smiles": "O=C(c1cccc(Br)c1)c1coc2ccc(O)cc12", "values": [{"measurement": "AC50", "setting": "[1]", "result": "23.1 µM (active)"}, {"measurement": "AC50", "setting": "[2]", "result": "913 nM (active)"}]}, {"smiles": "CC1CCN(CCNC(=O)C2CCCN(S(=O)(=O)c3cccc4nsnc34)C2)CC1", "note": "(centres undefined)", "values": [{"measurement": "IC50", "setting": "[3]", "result": "15.8 µM (active)"}]}, {"smiles": "CN(C)C(=O)N1CCN(S(=O)(=O)c2ccc3ccccc3c2)CC1", "values": [{"measurement": "IC50", "setting": "[3]", "result": "12.9 µM (active)"}]}, {"smiles": "COc1cc(-c2nc3ccccc3s2)ccc1O", "values": [{"measurement": "EC50", "setting": "[4]", "result": "> 79.4 µM (not active)"}, {"measurement": "EC50", "setting": "[5]", "result": "13 µM (not active)"}, {"measurement": "EC50", "setting": "[6]", "result": "11.7 µM (inactive)"}, {"measurement": "AC50", "setting": "[7]", "result": "7.81 µM (active)"}, {"measurement": "IC50", "setting": "[8]", "result": "16.1 µM (active)"}]}, {"smiles": "CSCCC(NS(=O)(=O)c1ccc(C)cc1)C(=O)NNC(=O)c1csc(N2CCOCC2)n1", "note": "(centres undefined)", "values": [{"measurement": "EC50", "setting": "[9]", "result": "19.1 µM (active)"}, {"measurement": "IC50", "setting": "[10]", "result": "66.6 µM (active)"}, {"measurement": "EC50", "setting": "[11]", "result": "9.84 µM (active)"}, {"measurement": "EC50", "setting": "[12]", "result": "14.1 µM (active)"}]}, {"smiles": "Cc1cc(=O)[nH]c(-n2[nH]c3c(c2=O)CCCC3)n1", "values": [{"measurement": "EC50", "setting": "[9]", "result": "12.2 µM (active)"}, {"measurement": "IC50", "setting": "[10]", "result": "> 100 µM (inactive)"}, {"measurement": "EC50", "setting": "[11]", "result": "9.58 µM (active)"}, {"measurement": "EC50", "setting": "[12]", "result": "19.8 µM (active)"}]}, {"smiles": "Cc1cc(C(C)(C)C)c(O)c(C(C)(C)C)c1", "note": "[BUTYLATED HYDROXYTOLUENE]", "values": [{"measurement": "AC50", "setting": "[13]", "result": "11.2 µM (inconclusive)"}]}, {"smiles": "c1ccc(NNc2ccccc2)cc1", "note": "[HYDRAZOBENZENE]", "values": [{"measurement": "AC50", "setting": "[13]", "result": "35.5 µM (inconclusive)"}]}]}
